Experimental data taken from patent US8173607B2, “Promoter for the production of hyaluronic acid containing ginsenoside compound K” (Amorepacific Corporation, priority 2002, dated 2012).

Columns and labels:
HAS2 gene [1] = experiment: Quantitative RT-PCR of HAS2 mRNA in keratinocyte cell line HaCaT; format: cell-based, human; conditions: HaCaT cells; for increase in HAS2 transcription: 1 μM compound K
Experimental: (§1) The cells were cultured in Dulbecco's modified Eagle's medium (DMEM) supplemented with 10% fetal bovine serum (HyClone), sodium bicarbonate (3.6 g/l) and antibiotics of streptomycin (100 μg/ml) and penicillin (100 U/ml) (Life Technologies, Inc.) at 37° C. in a humidified atmosphere containing 5% CO2 and 95% air. The culture was changed with fresh medium every 3 days. On reaching the maximum cell-density, the cells were recultured at a 1:5 division ratio. 48 hours before treatment with compound K, the cells were seeded into a tissue culture flask at 1×10^5 cells per 75 cm^2 and cultured in the medium with 10% fetal bovine serum for 24 hours. Subsequently, the cells were cultured in the serum-free medium for another 24 hours and then in fresh serum-free medium supplemented with 1 to 5 μM of compound K for 3, 6, 12, 24 or 48 hours. As a control, the cells were cultured in the medium supplemented with 0.01% vehicle (dimethylsulfoxide, DMSO). In the control, no effect of DMSO on cell growth and differentiation was observed.
(§2) HaCaT cells and HDF cells were washed twice with phosphate buffered saline (PBS) (Life Technologies, Inc.), and total cellular RNA was isolated with TRizol® reagent (GibcoBRL Life Technologies, Grand Island, N.Y.) according to manufacturer's instructions. RNA concentration was measured by spectrophotometry and RNA integrity was checked by agarose gel electrophoresis.
Quantitated total RNA was reverse transcribed, then RT-PCR was performed using HAS1-, HAS2- and HAS3-specific primers. In brief, 4 μg of total RNA was reverse transcribed in 25 μl of reaction mixture containing 2.5 U/μl Superscript II reverse transcriptase (Invitrogen, Carlsbad, Calif.), 1 U/μg RNase inhibitor, 5 mM MgCl2, 50 mM KCl, 10 mM Tris-HCl (pH8.3), 2.5 μM oligo(dT) primers and 1 mM dNTPs. The reaction mixture was gently incubated at 42° C. for 60 min, to be subjected to reverse transcription. Then, the reverse transcriptase was inactivated by heating at 85° C. for 5 min.
Subsequently, 5 μl of the resulting mixture was subjected to PCR. […]

HAS2 gene [2] = experiment: Quantitative RT-PCR of HAS2 mRNA in fibroblast cell line HDF; format: cell-based, human; conditions: HDF cells, treatment with compound K for 24 hours, in comparison with no treatment
Experimental: as §1, with “As a control, the cells were cultured in the medium supplemented with 0.01% vehicle (dimethylsulfoxide, DMSO). In the control, no effect of DMSO on cell growth and differentiation was observed.” left out
as §2
(§3) Quantitated total RNA was reverse transcribed, then RT-PCR was performed using HAS1-, HAS2- and HAS3-specific primers. […]

HAS1 = experiment: Quantitative RT-PCR of HAS1 mRNA in HaCaT cells; format: cell-based, human; conditions: 1 μM compound K, 24 or 48 hours
Experimental: as §1, with “As a control, the cells were cultured in the medium supplemented with 0.01% vehicle (dimethylsulfoxide, DMSO). In the control, no effect of DMSO on cell growth and differentiation was observed.” left out
as §2, §3

HAS3 = experiment: Quantitative RT-PCR of HAS3 mRNA in HaCaT cells; format: cell-based, human; conditions: 1 μM compound K, 24 or 48 hours
Experimental: as §1, with “As a control, the cells were cultured in the medium supplemented with 0.01% vehicle (dimethylsulfoxide, DMSO). In the control, no effect of DMSO on cell growth and differentiation was observed.” left out
as §2, §3

HaCaT cells = experiment: Hyaluronic acid production in cultured HaCaT cells, bHABP immunocytochemical staining; format: cell-based, human; conditions: 1 μM compound K, immunocytochemical method
Experimental: (§4) HaCaT and HDF cells were washed with PBS then fixed in a fixative with 2% paraformaldehyde(v/v) and 0.5% glutaraldehyde(v/v) at room temperature for 20 min. After fixation, the cells were washed three times for 2 min each with 0.1 M sodium phosphate buffer (pH7.4), then blocked in 1% bovine serum albumin (w/v) containing 0.1% Triton X-100 (v/v) in the same buffer at room temperature for 30 min. Hyaluronan staining was carried out with a specific probe of biotinylated hyaluronan binding protein (bHABP) (Seikagaku, Tokyo, Japan). The bHABP probe, diluted to 5 μg/ml in 3% bovine serum albumin (w/v), was added to the fixed cells and was incubated overnight at 4° C. After washing, avidin-fluorescein isothocyanate (FITC) was added.
(§5) HaCaT cells (FIG. 3a, FIG. 3b) and HDF cells (FIG. 3c, FIG. 3d) were cultured in the presence of 1 μM compound K (FIG. 3b, FIG. 3d) or in the absence of compound K (FIG. 3a, FIG. 3c).

HDF cells = experiment: Hyaluronic acid production in cultured HDF cells, bHABP immunocytochemical staining; format: cell-based, human; conditions: 1 μM compound K, immunocytochemical method
Experimental: as §4, §5

hairless mouse skin = experiment: Production of hyaluronic acid in hairless mouse skin, bHABP immunohistochemical staining and image analysis; format: in vivo; conditions: hairless mouse back skin, 1%(w/v) compound K solution topically
Experimental: Male albino Hos:hr-1 mice, 30 weeks old, were purchased from Biogenomics (Seoul, Korea) and had unrestricted access to standard rodent chow and water. After one week of acclimation under controlled conditions of 24±2° C. and 55±10% humidity, 200 μl of 1%(w/v) compound K solution in the vehicle (1,3-BG:ethanol-7:3) was topically applied onto the back of the mouse two times for 2 days. 24 hours after the final administration, each skin sample was collected.
Hyaluronan staining was carried out with bHABP(Seikagaku). Each skin sample was fixed with 2% formaldehyde and 0.5% glutaraldehyde in PBS, embedded and sectioned. After deparaffinization, sections were incubated in 0.3% H2O2 in methanol at room temperature for 30 min, washed with PBS, then blocked in 1% bovine serum albumin. Subsequently the sections were incubated in […] bHABP in PBS at 4° C. then, after washing, incubated with streptoavidin-peroxidase, diluted to 1/300 in PBS at room temperature, for 30 min. […]
Stained slides were quantitatively characterized via digital image analysis using ImagePro-Plus (Media Cybernetics, Silver Spring, Md.). […] Staining score is determined by the following formula 1: Intensity of stain X (total stained area/total area) Equation 1
One-way ANOVA with post-hog Duncan test was performed using SigmaStat (SPSS Inc., Chicago, Ill.). Data were expressed as the mean±SEM. […]

human skin = experiment: Clinical trial of skin-care efficacy of emulsion containing compound K; format: in vivo
Experimental: In order to evaluate the efficacy of the cosmetic composition containing compound K, a clinical trial was conducted with forty-nine (49) healthy Korean females aged from 31 to 37 years and having facial wrinkle and fine wrinkle. They were divided into three groups by skin type: normal skin, dry skin and combination skin and used two kinds of oily-water emulsions containing 0.03% compound K or none. Before the trial, all the volunteers were evaluated for facial wrinkle and fine wrinkle with a global photodamage score. All the scores were obtained before use and 4, 8 and 12 weeks after use. Each volunteer applied test samples onto the facial skin twice per day (morning and evening) at their homes, and particularly onto the wrinkles of the eye rims. Skin-care efficacies such as facial wrinkle, fine wrinkle, hydration, elasticity, smoothness, roughness and brightness were evaluated by the volunteers and skin expert inspectors. Difference before and after using topical samples and improvement were determined by photometry evaluation with Camscope® (model DCS-105) and by image analysis of silicon replica with Skin-Visiometer SV 600 (Courage & Khazaka, Germany).

[3] = emulsion with 0.03% compound K, after 8 weeks of use

CC(C)=CCC[C@](C)(OCC1OC(CO)C(O)C(O)C1O)C1CC[C@]2(C)C1C(O)CC1C3(C)CCC(O)C(C)(C)C3CCC12C (stereo partly drawn) [compound K, 20-O-β-D-glucopyranosyl-20(S)-protopanaxadiol]
increase in HAS2 transcription (HAS2 gene [1]; 24 hours incubation): about 3 times | increase in HAS2 transcription (HAS2 gene [1]; 48 hours incubation): about 5 times | increase in HAS2 gene expression (HAS2 mRNA) versus control (HAS2 gene [1]; treatment with compound K for 24 hours, in comparison with no treatment): 3 times | increase in HAS2 gene expression (HAS2 mRNA) versus control (HAS2 gene [2]): 2.5 times | effect on HAS1 mRNA level (HAS1): did not influence | effect on HAS3 mRNA level (HAS3): did not influence | production of hyaluronic acid in cultured cells (HaCaT cells): increased production of hyaluronic acid was confirmed | production of hyaluronic acid in cultured cells (HDF cells): increased production of hyaluronic acid was confirmed | hyaluronic acid in skin (immunohistochemical staining) (hairless mouse skin): significantly increased | wrinkle, hydration, elasticity, smoothness and brightness of human skin (human skin; compound K-containing topical composition applied onto the human skin): improved | volunteers answering improvement in skin brightness (human skin; emulsion with 0.03% compound K): 68% | volunteers answering improvement in skin elasticity (human skin; emulsion with 0.03% compound K): 68% | volunteers answering improvement in skin roughness (human skin; emulsion with 0.03% compound K): 94% | volunteers answering improvement in skin smoothness (human skin; emulsion with 0.03% compound K): 92% | volunteers answering increase in skin moisturizing capacity (human skin; emulsion with 0.03% compound K): 88% | facial wrinkle and fine wrinkle, global photodamage score by skin expert inspectors (human skin; emulsion with 0.03% compound K twice per day on facial skin, 12 weeks of use versus initial values and control emulsion): statistically significant decrease | total wrinkle in skin replica analysis (human skin; [3]): decreased statistically significantly | volunteers giving positive and affirmative estimate (human skin; [3]): 76% | volunteers giving positive and affirmative estimate (human skin; emulsion with 0.03% compound K, after 12 weeks of use): 92%
